Measurements: ChEMBL document CHEMBL2040771, “Discovery of a potent inhibitor of anaplastic lymphoma kinase with in vivo antitumor activity” (ACS Med Chem Lett, 2010)
The source made the active and inactive calls. No cut-off for these calls is given here.

Legend:
[1] = target: Tyrosine-protein kinase Srms (Homo sapiens) (UniProt Q9H3Y6); experiment: Inhibition of SRMS at 0.1 uM
[2] = Drug uptake in tumor lysates in SCID mouse xenografted with ALK-positive human SUP-M2 cells at 30 mg/kg, po bid for 12 days; assay type: ADME, organism-based, Neoplasm; design: dose 30 mg/kg, route oral; details: read-out: Drug uptake
[3] = tested on: K562; experiment: Induction apoptosis in ALK-negative human K562 cells assessed as activation of caspase 3/7 by fluorometric assay; assay type: functional, cell-based
[4] = target: Fibroblast growth factor receptor 4 (Homo sapiens) (UniProt P22455); experiment: Inhibition of FGFR4 at 0.1 uM
[5] = tested on: Mast/stem cell growth factor receptor Kit (Homo sapiens), P10721 [D816V]; experiment: Inhibition of KIT D816V mutant at 0.1 uM
[6] = Plasma clearance in beagle dog at 1 mg/kg, iv by LC/MS/MS analysis; assay type: ADME, organism-based, Canis lupus familiaris; design: dose 1 mg/kg, route intravenous
[7] = target: Mitogen-activated protein kinase 8 (Homo sapiens) (UniProt P45983); experiment: Inhibition of JNK1 at 0.1 uM
[8] = target: Dual specificity protein kinase TTK (Homo sapiens) (UniProt P33981); experiment: Inhibition of TTK at 0.1 uM
[9] = AUC in SCID mouse at 10 mg/kg, po; assay type: ADME, organism-based; design: dose 10 mg/kg, route oral; details: plasma
[10] = target: Leukocyte tyrosine kinase receptor (Homo sapiens) (UniProt P29376); experiment: Inhibition of LTK at 1 uM
[11] = tested on: SUP-M2; experiment: Antitumor activity against ALK-positive human SUP-M2 cells xenografted in SCID mouse at 10 mg/kg, po bid after 12 days; assay type: functional, organism-based; design: dose 10 mg/kg
[12] = Plasma protein binding in mouse; assay type: ADME, cell-free; details: read-out: PPB (converted)
[13] = target: Non-receptor tyrosine-protein kinase TNK1 (Homo sapiens) (UniProt Q13470); experiment: Inhibition of TNK1 at 1 uM
[14] = target: Dual specificity mitogen-activated protein kinase kinase 1 (Homo sapiens) (UniProt Q02750); experiment: Inhibition of MEK1 at 0.1 uM
[15] = tested on: Receptor-type tyrosine-protein kinase FLT3 (Homo sapiens), P36888 [N841I]; experiment: Inhibition of FLT3 N841I mutant at 0.1 uM
[16] = tested on: SUP-M2; experiment: Antitumor activity against ALK-positive human SUP-M2 cells xenografted in SCID mouse assessed as complete tumor regression at 55 mg/kg, po bid after 12 days; assay type: functional, organism-based; design: dose 55 mg/kg
[17] = tested on: Epidermal growth factor receptor (Homo sapiens), P00533 [L858R]; experiment: Inhibition of EGFR L858R mutant at 1 uM; assay type: protein assay
[18] = target: NUAK family SNF1-like kinase 1 (Homo sapiens) (UniProt O60285); experiment: Inhibition of ARK5 at 0.1 uM
[19] = target: Ribosomal protein S6 kinase alpha-2 (Homo sapiens) (UniProt Q15349); experiment: Inhibition of RPS6KA2 at 1 uM
[20] = target: Serine/threonine-protein kinase ULK3 (Homo sapiens) (UniProt Q6PHR2); experiment: Inhibition of ULK3 at 1 uM
[21] = target: Ribosomal protein S6 kinase alpha-2 (Homo sapiens) (UniProt Q15349); experiment: Inhibition of RPS6KA2 at 0.1 uM
[22] = target: T1, ALK tyrosine kinase receptor (Homo sapiens, UniProt Q9UM73); experiment: Inhibition of ALK
Target sequence in this assay (Q9UM73 whole entry): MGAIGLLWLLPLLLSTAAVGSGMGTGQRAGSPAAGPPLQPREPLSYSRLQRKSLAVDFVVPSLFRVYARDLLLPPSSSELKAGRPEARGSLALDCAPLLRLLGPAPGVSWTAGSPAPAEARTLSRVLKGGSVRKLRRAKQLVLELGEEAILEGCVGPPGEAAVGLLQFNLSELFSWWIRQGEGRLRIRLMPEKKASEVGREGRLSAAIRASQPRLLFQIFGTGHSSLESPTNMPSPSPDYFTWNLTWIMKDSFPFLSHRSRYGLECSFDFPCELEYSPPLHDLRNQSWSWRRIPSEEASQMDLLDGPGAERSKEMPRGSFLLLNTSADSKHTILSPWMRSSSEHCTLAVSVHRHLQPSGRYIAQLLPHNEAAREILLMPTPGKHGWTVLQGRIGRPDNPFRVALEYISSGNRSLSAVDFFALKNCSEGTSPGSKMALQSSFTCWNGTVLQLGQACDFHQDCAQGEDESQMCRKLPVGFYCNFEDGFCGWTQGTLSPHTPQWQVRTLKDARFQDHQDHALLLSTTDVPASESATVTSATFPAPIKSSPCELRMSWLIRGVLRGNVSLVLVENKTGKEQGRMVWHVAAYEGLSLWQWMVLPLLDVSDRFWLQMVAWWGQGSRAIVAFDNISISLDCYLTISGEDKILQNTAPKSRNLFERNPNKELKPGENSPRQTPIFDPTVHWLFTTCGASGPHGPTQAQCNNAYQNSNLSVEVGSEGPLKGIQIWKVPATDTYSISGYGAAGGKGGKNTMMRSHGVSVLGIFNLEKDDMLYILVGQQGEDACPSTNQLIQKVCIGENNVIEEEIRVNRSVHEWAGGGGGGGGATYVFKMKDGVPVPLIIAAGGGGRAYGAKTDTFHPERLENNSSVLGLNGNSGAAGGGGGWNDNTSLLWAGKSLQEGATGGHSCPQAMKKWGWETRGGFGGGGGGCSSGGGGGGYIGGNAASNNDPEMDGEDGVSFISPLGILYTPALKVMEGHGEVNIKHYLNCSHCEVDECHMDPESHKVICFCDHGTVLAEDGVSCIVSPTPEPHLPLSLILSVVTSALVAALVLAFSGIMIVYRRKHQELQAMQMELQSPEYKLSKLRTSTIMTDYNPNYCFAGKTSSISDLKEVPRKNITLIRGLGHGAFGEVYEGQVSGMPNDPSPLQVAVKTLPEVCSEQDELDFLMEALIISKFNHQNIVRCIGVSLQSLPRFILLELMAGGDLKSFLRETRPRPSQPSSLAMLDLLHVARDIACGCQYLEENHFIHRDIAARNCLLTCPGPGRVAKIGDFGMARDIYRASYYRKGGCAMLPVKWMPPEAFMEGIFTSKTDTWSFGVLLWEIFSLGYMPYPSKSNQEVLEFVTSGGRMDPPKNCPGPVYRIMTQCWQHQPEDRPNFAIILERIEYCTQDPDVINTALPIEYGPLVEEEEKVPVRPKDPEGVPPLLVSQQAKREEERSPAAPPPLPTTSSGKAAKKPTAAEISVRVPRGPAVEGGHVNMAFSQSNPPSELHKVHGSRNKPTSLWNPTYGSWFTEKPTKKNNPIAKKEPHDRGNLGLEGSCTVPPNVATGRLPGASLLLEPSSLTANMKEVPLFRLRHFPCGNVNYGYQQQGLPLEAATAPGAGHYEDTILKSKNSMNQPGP

[23] = target: Tyrosine-protein kinase Fer (Homo sapiens) (UniProt P16591); experiment: Inhibition of FER at 1 uM
[24] = target: Focal adhesion kinase 1 (Homo sapiens) (UniProt Q05397); experiment: Inhibition of FAK at 1 uM
[25] = target: T1, ALK tyrosine kinase receptor; details: 1 uM
Description: Inhibition of ALK at 1 uM

[26] = target: Tyrosine-protein kinase Fer (Homo sapiens) (UniProt P16591); experiment: Inhibition of FER at 0.1 uM
[27] = Half life in Sprague-Dawley rat at 5 mg/kg, po; assay type: ADME, organism-based; design: dose 5 mg/kg, route oral; details: in vivo
[28] = target: Vascular endothelial growth factor receptor 3 (Homo sapiens) (UniProt P35916); experiment: Inhibition of FLT4 at 0.1 uM

Chain of Ribosomal protein S6 kinase alpha-2 (Homo sapiens) (Q15349 whole entry): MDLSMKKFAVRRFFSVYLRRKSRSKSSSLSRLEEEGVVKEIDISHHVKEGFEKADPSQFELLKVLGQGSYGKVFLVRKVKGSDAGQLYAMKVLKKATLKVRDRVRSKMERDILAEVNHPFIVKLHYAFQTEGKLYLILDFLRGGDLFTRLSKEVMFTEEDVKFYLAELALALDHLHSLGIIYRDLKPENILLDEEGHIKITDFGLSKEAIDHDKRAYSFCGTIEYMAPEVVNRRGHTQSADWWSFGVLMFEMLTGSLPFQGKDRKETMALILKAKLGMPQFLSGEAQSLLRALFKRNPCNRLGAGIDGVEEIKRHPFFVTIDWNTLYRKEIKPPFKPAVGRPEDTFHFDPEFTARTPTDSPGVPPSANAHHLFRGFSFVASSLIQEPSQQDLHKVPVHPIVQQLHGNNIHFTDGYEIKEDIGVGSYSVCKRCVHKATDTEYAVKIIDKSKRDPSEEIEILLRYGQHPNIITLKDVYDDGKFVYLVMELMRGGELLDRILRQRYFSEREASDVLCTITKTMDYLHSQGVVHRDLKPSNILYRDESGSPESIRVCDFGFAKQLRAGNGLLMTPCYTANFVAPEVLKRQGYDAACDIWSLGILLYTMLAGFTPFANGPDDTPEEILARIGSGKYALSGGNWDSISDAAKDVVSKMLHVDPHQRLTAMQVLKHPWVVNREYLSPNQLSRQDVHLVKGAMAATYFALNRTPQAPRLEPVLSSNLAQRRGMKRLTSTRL
Chain of Tyrosine-protein kinase Fer (Homo sapiens) (P16591 whole entry, looked up): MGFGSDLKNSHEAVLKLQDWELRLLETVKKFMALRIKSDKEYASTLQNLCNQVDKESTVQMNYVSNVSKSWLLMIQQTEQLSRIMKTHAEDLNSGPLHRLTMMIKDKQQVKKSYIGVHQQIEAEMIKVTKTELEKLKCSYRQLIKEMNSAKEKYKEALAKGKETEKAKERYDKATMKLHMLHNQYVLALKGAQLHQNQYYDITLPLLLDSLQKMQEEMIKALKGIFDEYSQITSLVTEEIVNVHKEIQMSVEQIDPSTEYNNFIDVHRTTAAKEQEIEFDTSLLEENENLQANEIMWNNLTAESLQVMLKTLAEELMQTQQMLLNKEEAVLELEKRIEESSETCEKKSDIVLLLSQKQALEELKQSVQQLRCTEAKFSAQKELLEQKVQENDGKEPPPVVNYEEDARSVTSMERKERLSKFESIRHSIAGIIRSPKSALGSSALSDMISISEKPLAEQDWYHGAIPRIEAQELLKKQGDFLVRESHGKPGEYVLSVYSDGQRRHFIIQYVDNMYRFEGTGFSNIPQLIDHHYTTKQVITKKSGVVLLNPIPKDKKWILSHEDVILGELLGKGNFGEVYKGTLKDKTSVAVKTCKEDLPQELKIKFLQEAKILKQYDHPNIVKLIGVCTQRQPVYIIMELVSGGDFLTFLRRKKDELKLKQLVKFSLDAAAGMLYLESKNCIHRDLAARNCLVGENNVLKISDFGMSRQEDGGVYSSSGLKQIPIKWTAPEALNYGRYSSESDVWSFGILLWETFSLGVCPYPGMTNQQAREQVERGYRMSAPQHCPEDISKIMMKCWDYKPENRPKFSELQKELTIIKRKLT
Chain of Dual specificity protein kinase TTK (Homo sapiens) (P33981 whole entry): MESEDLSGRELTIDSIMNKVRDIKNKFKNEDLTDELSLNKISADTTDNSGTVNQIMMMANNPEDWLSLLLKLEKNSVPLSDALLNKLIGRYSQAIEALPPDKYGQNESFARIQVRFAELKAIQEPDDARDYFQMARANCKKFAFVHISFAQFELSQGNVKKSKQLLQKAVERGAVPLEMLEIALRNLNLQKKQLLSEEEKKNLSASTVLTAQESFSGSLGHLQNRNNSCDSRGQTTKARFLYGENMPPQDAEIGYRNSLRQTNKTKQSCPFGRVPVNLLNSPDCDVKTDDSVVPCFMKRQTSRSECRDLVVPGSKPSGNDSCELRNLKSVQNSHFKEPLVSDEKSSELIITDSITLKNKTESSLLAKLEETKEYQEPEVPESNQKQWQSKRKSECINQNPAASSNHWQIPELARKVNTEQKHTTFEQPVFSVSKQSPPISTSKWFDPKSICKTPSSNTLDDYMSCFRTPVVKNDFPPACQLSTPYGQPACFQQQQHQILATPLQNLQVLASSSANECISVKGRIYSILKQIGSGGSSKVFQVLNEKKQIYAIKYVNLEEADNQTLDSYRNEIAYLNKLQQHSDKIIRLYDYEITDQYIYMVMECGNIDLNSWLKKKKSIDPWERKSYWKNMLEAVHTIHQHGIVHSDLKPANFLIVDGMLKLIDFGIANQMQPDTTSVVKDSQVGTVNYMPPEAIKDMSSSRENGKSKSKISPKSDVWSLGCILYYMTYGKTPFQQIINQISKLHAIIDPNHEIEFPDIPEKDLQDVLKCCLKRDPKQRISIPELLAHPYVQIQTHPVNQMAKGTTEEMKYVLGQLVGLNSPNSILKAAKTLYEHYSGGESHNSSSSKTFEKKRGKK
Chain of Mast/stem cell growth factor receptor Kit (Homo sapiens), P10721 [D816V] (P10721 whole entry D816V): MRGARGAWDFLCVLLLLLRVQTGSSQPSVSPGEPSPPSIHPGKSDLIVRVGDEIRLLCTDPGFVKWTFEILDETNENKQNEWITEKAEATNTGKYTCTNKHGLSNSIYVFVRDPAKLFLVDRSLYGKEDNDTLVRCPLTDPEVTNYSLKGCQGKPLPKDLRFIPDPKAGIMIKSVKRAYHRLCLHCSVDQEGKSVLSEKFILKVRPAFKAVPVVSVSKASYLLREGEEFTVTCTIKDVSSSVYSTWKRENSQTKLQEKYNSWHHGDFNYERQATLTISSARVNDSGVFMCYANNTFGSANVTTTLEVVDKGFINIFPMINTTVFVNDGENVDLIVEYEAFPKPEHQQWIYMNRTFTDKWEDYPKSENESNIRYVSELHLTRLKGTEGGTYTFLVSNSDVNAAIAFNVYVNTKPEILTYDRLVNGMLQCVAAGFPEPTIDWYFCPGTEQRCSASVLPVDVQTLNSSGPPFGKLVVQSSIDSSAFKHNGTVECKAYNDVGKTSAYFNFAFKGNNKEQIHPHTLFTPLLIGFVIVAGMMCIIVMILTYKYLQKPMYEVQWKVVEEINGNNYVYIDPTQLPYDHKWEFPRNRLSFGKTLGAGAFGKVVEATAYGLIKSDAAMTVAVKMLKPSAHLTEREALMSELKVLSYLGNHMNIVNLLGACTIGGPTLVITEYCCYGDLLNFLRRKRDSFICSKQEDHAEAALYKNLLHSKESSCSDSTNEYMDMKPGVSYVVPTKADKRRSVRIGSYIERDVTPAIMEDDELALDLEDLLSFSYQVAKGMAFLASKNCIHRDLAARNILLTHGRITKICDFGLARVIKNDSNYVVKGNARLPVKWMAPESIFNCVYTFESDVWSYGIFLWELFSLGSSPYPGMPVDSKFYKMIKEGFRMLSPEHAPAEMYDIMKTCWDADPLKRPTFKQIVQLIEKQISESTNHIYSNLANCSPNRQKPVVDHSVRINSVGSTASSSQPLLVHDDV

CCN1C(=O)CCCc2c1ccc(Nc1ncc(Cl)c(N[C@H]3[C@@H](C(N)=O)[C@@H]4C=C[C@H]3C4)n1)c2OC
inhibition [1]: < 50% | concentration at 288 h [2]: 405 ng/g | Activity [3]: inactive | inhibition [4]: < 50% | inhibition [5]: 94% | clearance [6]: 22 mL/min/kg | inhibition [7]: 81% | inhibition [8]: 96% | AUC [9]: 1410 ng·h/mL | inhibition [10]: 98% | Activity [11]: inactive | fraction unbound [12]: 0.08 | inhibition [13]: 100% | inhibition [14]: < 50% | inhibition [15]: < 50% | Activity [16]: Active | inhibition [17]: 92% | inhibition [18]: < 50% | inhibition [19]: 100% | inhibition [20]: 94% | inhibition [21]: < 50% | IC50 [22]: 14 nM | inhibition [23]: 100% | inhibition [24]: 99% | inhibition [25]: 97% | inhibition [26]: 93% | half-life [27]: 132 min | inhibition [28]: 72%
